Blank lines part the entries; values can stand above or below the compound they belong to.
Experiments:
[1] = test system: Puccinia recondita f. sp. tritici; test: Fungicidal activity against Puccinia recondita f. sp. tritici / wheat / leaf disc preventative (brown rust); format: in vivo; settings: foliar, 200 ppm in the applied formulation, wheat leaf segments cv. Kanzler, preventative (inoculated 1 day after application), assessed 7 to 9 days after application, read-out: disease control compared to untreated control leaf disks
In short: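 Preventative leaf-segment test: compound sprayed at 200 ppm onto wheat (cv. Kanzler) segments, brown rust spores applied 1 day after. Kept at 19C and 75% rh under 12 h light/dark cycles; disease control versus untreated check read 7 to 9 days post-application.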

Phakopsora pachyrhizi = test: Fungicidal activity against Phakopsora pachyrhizi / soybean / leaf disc preventative (Asian soybean rust); format: in vivo; settings: foliar, 200 ppm in the applied formulation, soybean leaf disks, preventative (inoculated one day after application), assessed 12 to 14 days after application, read-out: disease control compared to untreated control leaf disks
In short: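 Preventative test: compound applied to soybean leaf discs a day before spore inoculation of the lower surface. Discs kept at 20° C and 75% rh, first 24-36 h in darkness, then under 12 h light/day; disease control relative to untreated discs rated 12 to 14 days post-application.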

[2] = test system: Glomerella laqenarium (Colletotrichum lagenarium); test: Fungicidal activity against Glomerella lagenarium (Colletotrichum lagenarium) liquid culture / cucumber / preventative (anthracnose); format: cell-based; settings: Colletotrichum orbiculare; 20 ppm in the applied formulation; liquid culture in PDB, 24° C., 3 to 4 days after application; read-out: disease control compared to untreated control (inhibition of growth measured photometrically)
In short: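 Test compound, applied from DMSO solution, is combined with PDB containing conidia taken from cryogenic storage. After 3–4 days at 24 °C, growth is measured photometrically and antifungal activity expressed as percent relative to untreated control.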

[3] = test system: Puccinia recondita f. sp. tritici; test: Fungicidal activity against Puccinia recondita f. sp. tritici / wheat / leaf disc curative (brown rust); format: in vivo; settings: foliar, 200 ppm in the applied formulation, wheat leaf segments cv. Kanzler, curative (applied 1 day after inoculation), assessed 6 to 8 days after application, read-out: disease control compared to untreated control leaf disks
In short: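 Curative test: compound, diluted from DMSO stock into water, applied one day after spore inoculation of wheat (cv. Kanzler) leaf segments kept on agar in darkness at 19° C. and 75% RH. Climate-cabinet incubation (19° C., 75% RH, 12 h photoperiod); disease control relative to untreated read 6–8 days post-application.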

Uromyces viciae-fabae = test: Fungicidal activity against Uromyces viciae-fabae / field bean / leaf disc preventative (faba-bean rust); format: in vivo; settings: foliar, 288 h, 100 ppm in the applied formulation, field bean leaf discs, preventative (inoculated two hours after application), assessed 12 days after application, read-out: disease control compared to untreated control leaf discs
In short: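 Field bean leaf discs on water agar treated with 10 μl compound in acetone plus spreader, then spray-inoculated on the lower surface with Uromyces viciae-fabae spores 2 h later. Incubation at 22 °C, 18 h day, 70% RH; percent disease control versus untreated scored 12 days after application, compounds at 100 ppm.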

melting point: 135 to 141 °C
Compound: Cc1ccccc1CNC(=O)c1ccc(-c2noc(C(F)(F)F)n2)cc1 [Compound 4a.4, N-(o-tolylmethyl)-4-[5-(trifluoromethyl)-1,2,4-oxadiazol-3-yl]benzamide]
pest or weed control at 200 ppm [1]: ≥ 80% | pest or weed control at 200 ppm (Phakopsora pachyrhizi): ≥ 80% | inhibition at 20 ppm [2]: ≥ 80% | pest or weed control at 200 ppm [3]: ≥ 80% | pest or weed control at 100 ppm (Uromyces viciae-fabae): ≥ 80%

melting point: 113.5 to 114.7 °C
Compound: O=C(NCC1CC1)c1ccc(-c2noc(C(F)(F)F)n2)cc1F [Compound 2b.1, N-(cyclopropylmethyl)-2-fluoro-4-[5-(trifluoromethyl)-1,2,4-oxadiazol-3-yl]benzamide]
pest or weed control at 200 ppm [1]: ≥ 80% | pest or weed control at 200 ppm (Phakopsora pachyrhizi): ≥ 80% | inhibition at 20 ppm [2]: ≥ 80% | pest or weed control at 200 ppm [3]: ≥ 80% | pest or weed control at 100 ppm (Uromyces viciae-fabae): ≥ 80%

melting point: 96.3 to 98.4 °C
Compound: Cc1nc(CN(C)C(=O)c2ccc(-c3noc(C(F)(F)F)n3)cc2F)cs1 [Compound 5b.15, 2-fluoro-N-methyl-N-[(2-methylthiazol-4-yl)methyl]-4-[5-(trifluoromethyl)-1,2,4-oxadiazol-3-yl]benzamide]
pest or weed control at 200 ppm [1]: ≥ 80% | pest or weed control at 200 ppm (Phakopsora pachyrhizi): ≥ 80% | inhibition at 20 ppm [2]: ≥ 80% | pest or weed control at 200 ppm [3]: ≥ 80% | pest or weed control at 100 ppm (Uromyces viciae-fabae): ≥ 80%

melting point: 144 to 148 °C
Compound: CC(NC(=O)c1ccc(-c2noc(C(F)(F)F)n2)cc1)c1ccccc1 (stereo not drawn) [Compound 4a.5, N-(1-phenylethyl)-4-[5-(trifluoromethyl)-1,2,4-oxadiazol-3-yl]benzamide]
pest or weed control at 200 ppm [1]: ≥ 80% | pest or weed control at 200 ppm (Phakopsora pachyrhizi): ≥ 80% | inhibition at 20 ppm [2]: ≥ 80% | pest or weed control at 200 ppm [3]: ≥ 80% | pest or weed control at 100 ppm (Uromyces viciae-fabae): ≥ 80%

melting point: 138.1 to 139.2 °C
Compound: N#CC(NC(=O)c1ccc(-c2noc(C(F)(F)F)n2)cc1F)c1cccs1 (stereo not drawn) [Compound 5b.20, N-[cyano(2-thienyl)methyl]-2-fluoro-4-[5-(trifluoromethyl)-1,2,4-oxadiazol-3-yl]benzamide]
pest or weed control at 200 ppm [1]: ≥ 80% | pest or weed control at 200 ppm (Phakopsora pachyrhizi): ≥ 80% | inhibition at 20 ppm [2]: ≥ 80% | pest or weed control at 200 ppm [3]: ≥ 80% | pest or weed control at 100 ppm (Uromyces viciae-fabae): ≥ 80%

melting point: 128.2 to 129.4 °C
Compound: C#CCNC(=O)c1ccc(-c2noc(C(F)(F)F)n2)cc1F [Compound 3b.4, 2-fluoro-N-prop-2-ynyl-4-[5-(trifluoromethyl)-1,2,4-oxadiazol-3-yl]benzamide]
pest or weed control at 200 ppm [1]: ≥ 80% | pest or weed control at 200 ppm (Phakopsora pachyrhizi): ≥ 80% | inhibition at 20 ppm [2]: ≥ 80% | pest or weed control at 200 ppm [3]: ≥ 80% | pest or weed control at 100 ppm (Uromyces viciae-fabae): ≥ 80%

melting point: 125 to 127 °C
Compound: CCNC(=O)c1ccc(-c2noc(C(F)(F)F)n2)cc1F [Compound 3b.2, N-ethyl-2-fluoro-4-[5-(trifluoromethyl)-1,2,4-oxadiazol-3-yl]benzamide]
pest or weed control at 200 ppm [1]: ≥ 80% | pest or weed control at 200 ppm (Phakopsora pachyrhizi): ≥ 80% | inhibition at 20 ppm [2]: ≥ 80% | pest or weed control at 200 ppm [3]: ≥ 80% | pest or weed control at 100 ppm (Uromyces viciae-fabae): ≥ 80%

melting point: 124.2 to 126.2 °C
Compound: O=C(NCC1CCOC1)c1ccc(-c2noc(C(F)(F)F)n2)cc1F (stereo not drawn) [Compound 1b.16, 2-fluoro-N-(tetrahydrofuran-3-ylmethyl)4[5(trifluoromethyl)-1,2,4-oxadiazol-3-yl]benzamide]
pest or weed control at 200 ppm [1]: ≥ 80% | pest or weed control at 200 ppm (Phakopsora pachyrhizi): ≥ 80% | inhibition at 20 ppm [2]: ≥ 80% | pest or weed control at 200 ppm [3]: ≥ 80% | pest or weed control at 100 ppm (Uromyces viciae-fabae): ≥ 80%

melting point: 168.5 to 170 °C
Compound: C#CCNC(=O)c1ccc(-c2noc(C(F)(F)F)n2)cc1 [Compound 3a.2, N-prop-2-ynyl-4-[5-(trifluoromethyl)-1,2,4-oxadiazol-3-yl]benzamide]
pest or weed control at 200 ppm [1]: ≥ 80% | pest or weed control at 200 ppm (Phakopsora pachyrhizi): ≥ 80% | inhibition at 20 ppm [2]: ≥ 80% | pest or weed control at 200 ppm [3]: ≥ 80% | pest or weed control at 100 ppm (Uromyces viciae-fabae): ≥ 80%
